Measurements as given in ChEMBL document CHEMBL5724796, “Tm Shift (DSF) assay results for EUbOPEN Chemogenomics Library” (2024).
Residues, ends and D or L forms follow the SMILES beside them. *: point of attachment. Cbz = O=C(OCc1ccccc1)*

Experiments:
[1] = target: Fibroblast growth factor receptor 2 (Homo sapiens) (UniProt P21802); conditions: Compound concentration 20.0 uM
Description: Thermal Shift Assay. Domain: start/stop: T457-E768

Peregrin (Homo sapiens) = target: T1, Peregrin (Homo sapiens) (UniProt P55201); conditions: Compound concentration 20.0 uM
T1 sequence (whole entry): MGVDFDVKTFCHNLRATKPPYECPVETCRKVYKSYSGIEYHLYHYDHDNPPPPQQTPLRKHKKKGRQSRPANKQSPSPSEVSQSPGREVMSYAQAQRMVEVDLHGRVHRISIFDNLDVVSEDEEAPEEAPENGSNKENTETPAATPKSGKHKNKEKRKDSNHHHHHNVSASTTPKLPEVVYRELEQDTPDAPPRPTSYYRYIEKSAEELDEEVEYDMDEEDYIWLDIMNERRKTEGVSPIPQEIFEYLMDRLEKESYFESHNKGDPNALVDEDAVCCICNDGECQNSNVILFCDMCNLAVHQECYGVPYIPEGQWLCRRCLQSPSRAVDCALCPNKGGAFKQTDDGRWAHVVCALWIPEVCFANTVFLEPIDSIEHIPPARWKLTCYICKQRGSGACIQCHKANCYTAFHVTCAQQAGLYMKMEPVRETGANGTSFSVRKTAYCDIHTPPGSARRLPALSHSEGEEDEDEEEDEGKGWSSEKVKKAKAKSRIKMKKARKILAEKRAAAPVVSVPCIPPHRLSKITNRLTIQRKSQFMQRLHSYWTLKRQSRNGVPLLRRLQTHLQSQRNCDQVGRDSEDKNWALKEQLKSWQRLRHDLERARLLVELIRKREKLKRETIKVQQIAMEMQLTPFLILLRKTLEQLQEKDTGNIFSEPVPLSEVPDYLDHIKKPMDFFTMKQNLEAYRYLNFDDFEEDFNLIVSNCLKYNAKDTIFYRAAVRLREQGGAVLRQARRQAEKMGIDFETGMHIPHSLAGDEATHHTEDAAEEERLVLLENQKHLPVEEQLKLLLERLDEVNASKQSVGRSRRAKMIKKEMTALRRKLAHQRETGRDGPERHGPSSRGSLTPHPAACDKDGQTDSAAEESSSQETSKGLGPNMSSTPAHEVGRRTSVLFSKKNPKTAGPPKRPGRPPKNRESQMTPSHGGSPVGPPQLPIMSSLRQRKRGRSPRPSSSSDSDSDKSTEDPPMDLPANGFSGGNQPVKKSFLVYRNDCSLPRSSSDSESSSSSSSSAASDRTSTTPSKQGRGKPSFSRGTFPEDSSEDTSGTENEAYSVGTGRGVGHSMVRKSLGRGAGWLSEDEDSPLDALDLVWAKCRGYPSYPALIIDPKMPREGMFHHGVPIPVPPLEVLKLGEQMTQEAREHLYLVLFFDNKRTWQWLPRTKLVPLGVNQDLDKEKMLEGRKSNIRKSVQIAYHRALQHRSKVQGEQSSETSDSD

Fibroblast growth factor receptor 2 (Homo sapiens), sequence (P21802 22-821 limits assumed): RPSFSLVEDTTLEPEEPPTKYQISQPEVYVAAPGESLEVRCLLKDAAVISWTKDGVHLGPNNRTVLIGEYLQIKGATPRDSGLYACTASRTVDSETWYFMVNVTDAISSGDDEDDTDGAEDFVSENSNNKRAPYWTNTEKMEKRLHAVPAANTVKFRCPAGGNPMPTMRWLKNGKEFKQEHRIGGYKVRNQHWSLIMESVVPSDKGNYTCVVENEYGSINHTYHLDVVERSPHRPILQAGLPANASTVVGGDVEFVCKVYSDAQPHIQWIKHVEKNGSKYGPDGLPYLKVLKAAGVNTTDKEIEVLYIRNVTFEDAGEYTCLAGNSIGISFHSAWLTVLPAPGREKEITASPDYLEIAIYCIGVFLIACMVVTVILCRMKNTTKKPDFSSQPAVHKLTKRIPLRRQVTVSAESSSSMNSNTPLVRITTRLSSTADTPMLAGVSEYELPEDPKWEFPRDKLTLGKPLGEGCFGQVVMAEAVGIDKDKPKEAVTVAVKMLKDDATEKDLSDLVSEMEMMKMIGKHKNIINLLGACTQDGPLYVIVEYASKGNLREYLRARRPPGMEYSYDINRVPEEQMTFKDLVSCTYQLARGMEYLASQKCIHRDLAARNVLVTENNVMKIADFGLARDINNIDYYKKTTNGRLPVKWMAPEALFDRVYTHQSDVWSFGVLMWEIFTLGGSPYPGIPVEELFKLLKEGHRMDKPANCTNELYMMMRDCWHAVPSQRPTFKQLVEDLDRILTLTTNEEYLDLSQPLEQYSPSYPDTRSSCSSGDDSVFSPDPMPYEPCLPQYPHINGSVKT

| SMILES | ΔTm [1] [°C] | ΔTm (Peregrin (Homo sapiens)) [°C] |
| --- | --- | --- |
| Cc1cc(S(C)(=O)=O)c(S(C)(=O)=O)cc1C(=O)NC(=N)N | 0 | 2.74 |
| Cc1ccnc(NS(=O)(=O)c2ccc(NC(=O)Nc3ccc(S(=O)(=O)Nc4nccc(C)n4)cc3)cc2)n1 | -0.47 | 0.27 |
| O=C(NCc1ccc(F)cc1)C1CCN(S(=O)(=O)c2cc(Cl)cc(Cl)c2)CC1 | 0.75 | 2.64 |
| Cc1c(F)c(N)cc(C(=O)Nc2cc(-n3cc(C(=O)NCCCN4CCOCC4)nn3)ccc2N2CCN(C)CC2)c1Cl | 0.03 | -0.29 |
| O=C(CNC(=O)[C@H](COP(=O)(O)O)NC(=O)CCc1c[nH]c2ccccc12)NCCCCc1ccccc1 | 0.74 | 2.14 |
| COc1cccc(Nc2c(C(N)=O)cnc3c(C)cc(S(=O)(=O)c4cccc(C(=O)N(C)C)c4)cc23)c1 | -0.11 | -1.59 |
| O=CC1CCCN1C(=O)C1CCCN1C(=O)OCc1ccccc1 (stereo not drawn) (Cbz-Pro-Pro-aldehyde; configuration not given here) | 0.49 | -0.94 |
| CC(=O)N[C@@H](CC(C)C)C(=O)N[C@@H](CCC(=O)O)C(=O)N[C@@H](Cc1cnc[nH]1)C(=O)N[C@H](C=O)CC(=O)O (Ac-LEHD-aldehyde) | 0.53 | -1.22 |
| COc1ccc2c(c1)OC(C)(C)C(c1ccccc1)C2c1ccc(OCCN2CCCC2)cc1 (configuration not stated) | 0.15 | -2.59 |
| O=C(Nc1ccccc1C(=O)O)c1cc(S(=O)(=O)c2ccccc2)ccc1Cl | -0.48 | 0.95 |
| COc1cc(C(=O)NCC2(N(C)C)CCCC2)cc(OC)c1OCc1ccccc1 | 0.12 | 2.2 |
| N#Cc1cccnc1N1CCN(C(=O)c2cccc(Cc3n[nH]c(=O)c4ccccc34)c2)CC1 | -0.1 | 1.88 |
| CN1CC[C@@H](Oc2ccc(F)c(-c3nc4c(o3)C(=O)c3ccccc3C4=O)c2Cl)C1 | -0.38 | 0.26 |
| Cc1cc(-c2ccccc2)cc(C(=O)NNS(=O)(=O)c2ccccc2)c1F | 0 | -1.3 |
| COc1cc2/c(=N/c3ccc(Br)cc3F)nc[nH]c2cc1OCC1CCN(C)CC1 | 5.47 | -0.84 |
| Cc1nccn1CC1CCc2c(c3ccccc3n2C)C1=O (configuration not stated) | -0.16 | 0.91 |

| SMILES | ΔTm [1] [°C] | ΔTm (Peregrin (Homo sapiens)) [°C] |
| --- | --- | --- |
| CCCN(CCC)c1ccc(C=O)cc1Br | 0.23 | -0.41 |
| COc1cc([C@@H]2Oc3c(O)cc([C@H]4Oc5cc(O)cc(O)c5C(=O)[C@@H]4O)cc3[C@H]2CO)ccc1O | -0.46 | 2.27 |
| CN(C)Cc1ccc(-c2nc3cccc4c3n2CCNC4=O)cc1 | 0.73 | 0.88 |
| CCCCCCNC(=O)n1cc(Cl)c(=O)n(C(=O)OCC(C)C)c1=O | 0.1 | 0.68 |
| N#Cc1ccc(N2N=C3c4ccc(C(=O)O)cc4CC[C@@H]3[C@@H]2C2CCCC2)cc1Cl | -1.06 | -8.37 |
| COC(=O)C[C@@H]1N=C(c2ccc(Cl)cc2)c2c(sc(C)c2C)-n2c(C)nnc21 | 0.53 | -0.95 |
| CC(=O)N[C@H](C(=O)N[C@@H](CC(=O)O)C(=O)N[C@H](C(=O)N[C@@H](C)C(=O)N[C@H](C=O)CC(=O)O)C(C)C)C(C)C (Ac-VDVAD-aldehyde) | -0.83 | -0.92 |
| C(=C\c1ccccc1)/CN1CCN(CCOC(c2ccccc2)c2ccccc2)CC1 | -0.04 | 0.95 |
| N[C@@H](CC(=O)N1CCN(C(c2ccc(F)cc2)c2ccc(F)cc2)CC1)C(=O)N1Cc2ccccc2C1 | 0 | -1.34 |
| O=C(Nc1cc(C(F)F)ns1)Nc1cc(F)ncc1CO | -0.3 | 3.9 |
| C[C@]12CC[C@@H]3c4ccc(O)cc4C[C@@H](CCCCCCCCC[S+]([O-])CCCC(F)(F)C(F)(F)F)[C@H]3[C@@H]1CC[C@@H]2O (some centres not stated) | -3.24 | 0 |
| N[C@H](C(=O)O)[C@H](OCc1cccc(NC(=O)c2ccc(C(F)(F)F)cc2)c1)C(=O)O | -0.22 | 0.9 |
| O=C(O)[C@@H]1CCCN(C(=O)n2cnc(-c3ccc(-c4cnc(N5CCOCC5)nc4)cc3)n2)[C@H]1c1ccccc1 | 0.15 | -0.92 |
| Cc1cc(C)cc(Oc2ccc(CNC(=O)[C@H](C)N)cc2C)c1 | 0.01 | -1.68 |
| O=C(c1ccc2[nH]ccc2c1)N1CCN(S(=O)(=O)c2ccc3[nH]c(=O)oc3c2)CC1 | 1.77 | -0.16 |
